Data reported in US7393846B2, “Heterocyclic compounds useful for the treatment of inflammatory and allergic disorders” (Glenmark Pharmaceuticals, S.A., priority 2003, dated 2008).
Counter-ions that a name gives are not always drawn. Like-named read-outs stand apart in the source and are kept apart here.

Experiments:
[1] = target: PDE4 enzyme; test: Inhibition of Phosphodiesterase Enzymes (PDE4), [3H]cAMP hydrolysis assay; type: biochemical; conditions: PDE4 inhibition, 1 μM cAMP, 34° C., 20 minutes
Protocol: Inhibition of Phosphodiesterase Enzymes (PDE4)
In this assay, PDE4 enzyme converts [^3H] cAMP to the corresponding [^3H] 5′-AMP in proportion to the amount of PDE4 present. The [^3H] 5′-AMP then was quantitatively converted to free [^3H] adenosine and phosphate by the action of snake venom 5′-nucleotidase.
The assay was performed with modification of the method of Thompson and Appleman (Biochemistry; 1971; 10; 311-316) and Schwartz and Passoneau (Proc. Natl. Acad. Sci. U.S.A. 1974; 71; 3844-3848), both references incorporated herein by reference in their entirety, at 34° C. In a 200 ul total reaction mixture, the reaction mixture contained 12.5 mM of Tris, 5 mM MgCl2, 1 μM cAMP (cold) and ^3H cAMP (0.1 uCi), (Amersham). […] Drug samples were then added in the reaction mixture (25 μt/tube). The assay was initiated by addition of enzyme mix (75 μl) and the mixture was incubated for 20 minutes at 34° C. The reaction was stopped by boiling the tubes for 2 mins at 100° C. in a water bath. After cooling on ice for 5 minutes and addition of 50 ug/reaction of 5′-nucleotidase snake venom from Crotalus atrox incubation was carried out again for 20 min. at 34° C. The unreacted substrate was separated from (^3H) Adenosine by addition of Dowex AG 1-X8 (Biorad Lab), (400 ul) which was prequilibrated (1:1:1) in water and ethanol. Reaction mixture was then thoroughly mixed, placed on ice for 15 minutes, vortexed and centrifuged at 14,000 r.p.m. for 2 mins. After centrifugation, a sample of the supernatant was taken and added in 24 well optiplates containing Scintillant (1 ml) and mixed well. The samples in the plates were then determined for radioactivity in a Top Counter and the PDE4 activity was estimated. PDE4 enzyme was present in quantities that yield <30% total hydrolysis of substrate (linear assay conditions).
Results were expressed as percent inhibition (IC50) in nM concentrations. The IC50 values were determined from the concentration curves by nonlinear regression analysis.

[2] = test system: PDE4; test: EC50 of the PDE4 results table (method not given)

Structure (SMILES)	IC50 [1] [nM]	EC50 [2] [nM]	further results
COc1ccc(C(=O)Nc2c(Cl)cncc2Cl)c2c1oc1ccc(NC(=O)N3CCN(C)CC3)cc12 [Example 23, N-(3,5-dichloropyrid-4-yl)-4-methoxy-8-(N-methylpiperazin-4-ylcarboxamido)-dibenzo[b,d]furan-1-carboxamide hydrochloride]			IC50 ([1]; hydrochloride): 3.78 nM; EC50 ([2]; hydrochloride): 4.14 nM
COc1ccc(C(=O)Nc2c(Cl)c[n+]([O-])cc2Cl)c2c1oc1ccc(NS(C)(=O)=O)cc12 [Example 48, N-(3,5-dichloropyrid-4-yl)-4-methoxy-8-methanesulfonamido-dibenzo[b,d]furan-1-carboxamide-N-oxide]	1.67	11.9	
COc1ccc(C(=O)Nc2c(Cl)cncc2Cl)c2c1oc1ccc(N(C(=O)C3CC3)C(=O)C3CC3)cc12 [Example 13, N-(3,5-dichloropyrid-4-yl)-4-methoxy-8-(N,N-dicyclopropylcarbonylamino)-dibenzo[b,d]furan-1-carboxamide]	74		
COc1ccc(C(=O)Nc2c(Cl)cncc2Cl)c2c3cc(NC(C)=O)ccc3n(C)c12 [Example 54, N-(3,5-dichloropyrid-4-yl)-1-methoxy-9-methyl-6-acetamido-9H-4-carbazolecarboxamide]	237		
O=C(O)C(=O)Nc1ccc2oc3c(OC(F)F)ccc(C(=O)Nc4c(Cl)cncc4Cl)c3c2c1 [Example 39, N-(3,5-dichloropyrid-4-yl)-4-difluoromethoxy-8-hydroxycarbonylcarboxamido-dibenzo[b,d]furan-1-carboxamide disodium salt]			IC50 ([1]; disodium salt): 0.598 nM; EC50 ([2]; disodium salt): 9.19 nM
COc1ccc(C(=O)Nc2c(Cl)cncc2Cl)c2c1oc1ccc(NC(=O)C(=O)O)cc12 [Example 09, N-(3,5-dichloropyrid-4-yl)-4-methoxy-8-hydroxycarbonylcarboxamido-dibenzo[b,d]furan-1-carboxamide]	1.03	138	
O=C(Nc1c(Cl)cncc1Cl)c1ccc(OC(F)F)c2oc3ccc(NC(=O)C4CC4)cc3c12 [Example 36, N-(3,5-dichloropyrid-4-yl)-4-difluoromethoxy-8-cyclopropylcarboxamido-dibenzo[b,d]furan-1-carboxamide]	4.64	8.44	
COc1ccc(C(=O)Nc2c(Cl)cncc2Cl)c2c1oc1ccc(NC(=O)N3CCC(O)CC3)cc12 [Example 24, N-(3,5-dichloropyrid-4-yl)-4-methoxy-8-(4-hydroxypiperidin-1-ylcarboxamido)-dibenzo[b,d]furan-1-carboxamide]	3.01	2.94	
CN(C)S(=O)(=O)Nc1ccc2oc3c(OC(F)F)ccc(C(=O)Nc4c(Cl)cncc4Cl)c3c2c1 [Example 33, N-(3,5-dichloropyrid-4-yl)-4-difluoromethoxy-8-N,N-dimethylaminosulfonamido-dibenzo[b,d]furan-1-carboxamide]	12.1		
COc1ccc(C(=O)Nc2c(Cl)cncc2Cl)c2c1oc1ccc(NC(=O)N3CCOCC3)cc12 [Example 25, N-(3,5-dichloropyrid-4-yl)-4-methoxy-8-(morphol-4-ylcarboxamido)-dibenzo[b,d]furan-1-carboxamide]	5.07	8.9	
O=C(O)C(=O)Nc1ccc2oc3c(OC(F)F)ccc(C(=O)Nc4c(Cl)cncc4Cl)c3c2c1 [Example 38, N-(3,5-dichloropyrid-4-yl)-4-difluoromethoxy-8-hydroxycarbonylcarboxamido-dibenzo[b,d]furan-1-carboxamide]	1.41	26.9	
CS(=O)(=O)Nc1ccc2oc3c(OC(F)F)ccc(C(=O)Nc4c(Cl)cncc4Cl)c3c2c1 [Example 31, N-(3,5-dichloropyrid-4-yl)-4-difluoromethoxy-8-methanesulfonamido-dibenzo[b,d]furan-1-carboxamide sodium salt]			IC50 ([1]; sodium salt): 1.43 nM; EC50 ([2]; sodium salt): 3.46 nM
COc1ccc(C(=O)Nc2c(Cl)cncc2Cl)c2c1oc1ccc(NC(=O)c3ccco3)cc12 [Example 11, N-(3,5-dichloropyrid-4-yl)-4-methoxy-8-(fur-2-yl-carboxamido)-dibenzo[b,d]furan-1-carboxamide]	0.887	4.34	
CS(=O)(=O)Nc1ccc2oc3c(OC(F)F)ccc(C(=O)Nc4c(Cl)cncc4Cl)c3c2c1 [Example 30, N-(3,5-dichloropyrid-4-yl)-4-difluoromethoxy-8-methanesulfonamido-dibenzo[b,d]furan-1-carboxamide]	1.63	3.59	
CCS(=O)(=O)Nc1ccc2oc3c(OC(F)F)ccc(C(=O)Nc4c(Cl)cncc4Cl)c3c2c1 [Example 32, N-(3,5-dichloropyrid-4-yl)-4-difluoromethoxy-8-ethanesulfonamido-dibenzo[b,d]furan-1-carboxamide]	14.1		
COc1ccc(C(=O)Nc2c(Cl)cncc2Cl)c2c1oc1ccc(NC(=O)Oc3ccccc3)cc12 [Example 17, N-(3,5-dichloropyrid-4-yl)-4-methoxy-8-phenoxycarboxamido-dibenzo[b,d]furan-1-carboxamide]	9.09	104	
O=C(Nc1ccc2oc3c(OC(F)F)ccc(C(=O)Nc4c(Cl)cncc4Cl)c3c2c1)c1ccco1 [Example 40, N-(3,5-dichloropyrid-4-yl)-4-difluoromethoxy-8-fur-2-ylcarboxamido-dibenzo[b,d]furan-1-carboxamide]	22	11.3	

Now from value to molecule, other results behind:

IC50 [1] [nM]	EC50 [2] [nM]	Structure (SMILES)	further results
0.773	6.37	CCCCNC(=S)Nc1ccc2oc3c(OC)ccc(C(=O)Nc4c(Cl)cncc4Cl)c3c2c1 [Example 45, N-(3,5-dichloropyrid-4-yl)-4-methoxy-8-(n-butylaminothiocarboxamido)-dibenzo[b,d]furan-1-carboxamide]	
4.79	9.01	COc1ccc(C(=O)Nc2c(Cl)cncc2Cl)c2c1oc1ccc(NC(=O)OCC(F)(F)F)cc12 [Example 19, N-(3,5-dichloropyrid-4-yl)-4-methoxy-8-trifluoromethylmethoxycarboxamido-dibenzo[b,d]furan-1-carboxamide]	
1.05	71.5	COc1ccc(C(=O)Nc2c(Cl)cncc2Cl)c2c1oc1ccc(NCC(=O)O)cc12 [Example 53, N-(3,5-dichloropyrid-4-yl)-4-methoxy-8-(2-hydroxy-2-oxo-ethylamino)-dibenzo[b,d]furan-1-carboxamide]	
4.68	110	CCOC(=O)C(=O)Nc1ccc2oc3c(OC)ccc(C(=O)Nc4c(Cl)cncc4Cl)c3c2c1 [Example 08, N-(3,5-dichloropyrid-4-yl)-4-methoxy-8-ethoxycarbonylcarboxamido-dibenzo[b,d]furan-1-carboxamide]	
15.6		COc1ccc(C(=O)Nc2c(Cl)cncc2Cl)c2c1oc1ccc(NC(=O)NC(C)C)cc12 [Example 26, N-(3,5-dichloropyrid-4-yl)-4-methoxy-8-isopropylamino carboxamido-dibenzo[b,d]furan-1-carboxamide]	
3.4	4.16	CCCCCCNC(=O)Nc1ccc2oc3c(OC)ccc(C(=O)Nc4c(Cl)cncc4Cl)c3c2c1 [Example 27, N-(3,5-dichloropyrid-4-yl)-4-methoxy-8-n-hexylamino carboxamido-dibenzo[b,d]furan-1-carboxamide]	
0.762	7.39	CCS(=O)(=O)Nc1ccc2oc3c(OC)ccc(C(=O)Nc4c(Cl)cncc4Cl)c3c2c1 [Example 03, N-(3,5-dichloropyrid-4-yl)-4-methoxy-8-(ethanesulphonamido)-dibenzo[b,d]furan-1-carboxamide]	
1.98	122	COc1ccc(C(=O)Nc2c(Cl)cncc2Cl)c2c1oc1ccc(NC(=O)NCC(=O)O)cc12 [Example 51, N-(3,5-dichloropyrid-4-yl)-4-methoxy-8-(2-hydroxy-2-oxo-ethylaminocarbonylamino)-dibenzo[b,d]furan-1-carboxamide]	
0.557	16.2	COc1ccc(C(=O)Nc2c(Cl)cncc2Cl)c2c1oc1ccc(NC(=O)C3CC3)cc12 [Example 12, N-(3,5-dichloropyrid-4-yl)-4-methoxy-8-(cyclopropylcarbonylamino)-dibenzo[b,d]furan-1-carboxamide]	
1.4	6.33	CCNC(=O)Nc1ccc2oc3c(OC)ccc(C(=O)Nc4c(Cl)cncc4Cl)c3c2c1 [Example 28, N-(3,5-dichloropyrid-4-yl)-4-methoxy-8-ethylamino carboxamido-dibenzo[b,d]furan-1-carboxamide]	
63.6		COc1ccc(C(=O)Nc2c(Cl)cncc2Cl)c2c1oc1ccc(NC(=O)OCC(C)C)cc12 [Example 16, N-(3,5-dichloropyrid-4-yl)-4-methoxy-8-isobutyloxycarboxamido-dibenzo[b,d]furan-1-carboxamide]	
